# Measurements as given in US11685732B2, “MYST family histone acetyltransferase inhibitors” (Epizyme, Inc., priority 2017, dated 2023).
# pIC50: −log10 of the molar value.
# Legend:
# KAT-6A = KAT-6A (Homo sapiens (Human), UniProt Q92794); test: KAT-6A biochemical inhibition assay (SAMDI mass spectrometry)
# Summary of the method: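 Enzyme (12.5 nM final) pre-incubated with serially diluted compounds (2% DMSO final) in 50 mM Tris pH 8.0 with Tween20, gelatin and 1 mM DTT. Reaction started with 1 μM peptide substrate and 1 μM acetyl-CoA, run 90 min at 25 °C, quenched with 0.5% formic acid, read by SAMDI-TOF mass spectrometry; IC50 derived.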
# KAT-5 = KAT-5 (Homo sapiens (Human), UniProt Q92993); test: KAT-5 biochemical inhibition assay (SAMDI mass spectrometry)
# Summary of the method: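 KAT-5 at 9 nM final was preincubated with serially diluted compound (2% DMSO) in 50 mM Tris pH 8.0 with 1 mM DTT. Reaction ran with 1 μM peptide substrate and 0.5 μM acetyl-CoA for 90 min at 25° C, was quenched with 0.5% formic acid, and was read by SAMDI-TOF mass spectrometry.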
# KAT-7 = KAT-7 (Homo sapiens (Human), UniProt O95251); test: KAT-7 biochemical inhibition assay (SAMDI mass spectrometry)
# Summary of the method: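 KAT-7 (6 nM) was pre-incubated with serially diluted compound (2% DMSO) in Tris pH 8.0 with DTT. Reaction with 1 μM peptide and 2 μM acetyl-CoA ran 120 min at 25 °C and was stopped with 0.5% formic acid. Acetylation was read by SAMDI-TOF mass spectrometry to give IC50.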
# KAT-8 = KAT-8 (Homo sapiens (Human), UniProt Q9H7Z6); test: KAT-8 biochemical inhibition assay (SAMDI mass spectrometry)
# Summary of the method: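 Compounds in 2% DMSO pre-incubated with 12.5 nM enzyme in 50 mM Tris pH 8.0 with Tween20, gelatin and 1 mM DTT. Then 1 μM peptide and 5 μM acetyl-CoA were added, 90 min at 25 °C; formic acid stop and SAMDI-TOF mass spectrometry for IC50.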
# Chain of KAT-5 (Q92993 other isoform, or with tags, fused parts or gaps): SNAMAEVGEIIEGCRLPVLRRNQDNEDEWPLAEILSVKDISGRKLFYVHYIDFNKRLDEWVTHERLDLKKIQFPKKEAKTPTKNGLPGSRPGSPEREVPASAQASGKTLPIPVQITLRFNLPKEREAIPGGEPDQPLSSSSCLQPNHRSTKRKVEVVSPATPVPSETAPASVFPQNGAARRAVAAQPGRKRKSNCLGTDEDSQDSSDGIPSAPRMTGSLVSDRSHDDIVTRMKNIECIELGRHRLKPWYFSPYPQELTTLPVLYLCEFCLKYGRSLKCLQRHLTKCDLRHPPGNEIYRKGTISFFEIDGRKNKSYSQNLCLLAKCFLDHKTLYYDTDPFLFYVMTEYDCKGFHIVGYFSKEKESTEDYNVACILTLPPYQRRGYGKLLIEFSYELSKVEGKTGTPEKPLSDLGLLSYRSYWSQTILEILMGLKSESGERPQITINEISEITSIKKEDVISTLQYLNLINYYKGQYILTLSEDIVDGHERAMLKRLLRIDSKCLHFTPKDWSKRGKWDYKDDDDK
# Chain of KAT-7 (O95251 other isoform, or with tags, fused parts or gaps): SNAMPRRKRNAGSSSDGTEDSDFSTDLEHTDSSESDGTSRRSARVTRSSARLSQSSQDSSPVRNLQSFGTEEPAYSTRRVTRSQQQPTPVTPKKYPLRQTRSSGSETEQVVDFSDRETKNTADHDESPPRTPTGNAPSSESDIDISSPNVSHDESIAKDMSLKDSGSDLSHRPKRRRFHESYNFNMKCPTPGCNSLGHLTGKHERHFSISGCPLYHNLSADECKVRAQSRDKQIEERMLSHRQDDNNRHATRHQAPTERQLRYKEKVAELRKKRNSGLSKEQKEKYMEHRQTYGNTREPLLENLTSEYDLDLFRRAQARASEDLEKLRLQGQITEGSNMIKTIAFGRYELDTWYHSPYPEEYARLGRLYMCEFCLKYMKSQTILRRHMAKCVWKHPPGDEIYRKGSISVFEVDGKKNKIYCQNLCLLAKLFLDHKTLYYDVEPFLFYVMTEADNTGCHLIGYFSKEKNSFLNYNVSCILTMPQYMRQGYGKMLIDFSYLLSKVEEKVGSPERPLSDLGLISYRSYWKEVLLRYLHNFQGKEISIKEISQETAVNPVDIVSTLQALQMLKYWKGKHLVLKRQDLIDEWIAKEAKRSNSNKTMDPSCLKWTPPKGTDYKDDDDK
# Chain of KAT-8 (Q9H7Z6 other isoform, or with tags, fused parts or gaps): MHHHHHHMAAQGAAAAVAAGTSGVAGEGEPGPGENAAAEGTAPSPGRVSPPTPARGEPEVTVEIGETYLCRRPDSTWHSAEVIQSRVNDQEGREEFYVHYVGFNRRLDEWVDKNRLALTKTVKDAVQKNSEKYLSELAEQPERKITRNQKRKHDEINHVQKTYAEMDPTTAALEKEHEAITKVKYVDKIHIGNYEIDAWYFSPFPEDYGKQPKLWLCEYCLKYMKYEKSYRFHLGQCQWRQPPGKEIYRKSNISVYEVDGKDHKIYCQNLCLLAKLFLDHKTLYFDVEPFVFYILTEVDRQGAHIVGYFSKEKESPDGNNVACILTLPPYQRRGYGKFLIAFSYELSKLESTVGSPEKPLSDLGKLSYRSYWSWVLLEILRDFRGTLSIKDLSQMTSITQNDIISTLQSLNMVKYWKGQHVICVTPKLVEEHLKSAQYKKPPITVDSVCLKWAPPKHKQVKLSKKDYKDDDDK
# Chain of KAT-6A (Q92794 other isoform, or with tags, fused parts or gaps): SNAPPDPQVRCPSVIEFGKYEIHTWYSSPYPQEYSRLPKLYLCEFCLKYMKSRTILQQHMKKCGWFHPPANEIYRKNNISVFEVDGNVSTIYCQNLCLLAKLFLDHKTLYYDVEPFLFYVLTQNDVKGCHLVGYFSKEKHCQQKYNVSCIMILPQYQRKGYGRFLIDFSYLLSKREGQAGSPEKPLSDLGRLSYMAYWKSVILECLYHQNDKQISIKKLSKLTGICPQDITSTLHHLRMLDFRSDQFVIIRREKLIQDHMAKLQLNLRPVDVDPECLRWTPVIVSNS
Structure (SMILES),pIC50 (KAT-6A),pIC50 (KAT-5),pIC50 (KAT-7),pIC50 (KAT-8)
Cn1cnc(-c2cc(Cl)c(F)c(C(=O)NNC3CCS(=O)(=O)C3)c2)c1 (stereo not shown) [Compound I-232],4.30 to 5.00,4.30 to 5.00,4.30 to 5.00,4.30 to 5.00
COCCn1nc(-c2cc(Cl)c(F)c(C(=O)NNS(=O)(=O)CC3CCCCC3)c2)cc1C [Compound I-233],4.30 to 5.00,4.30 to 5.00,> 5.00,4.30 to 5.00
Cn1cnc(-c2cc(Cl)c(F)c(C(=O)NNS(=O)(=O)CC3CCCC(NC(=O)c4ccccn4)C3)c2)c1 (stereo not shown) [Compound I-234],> 5.00,> 5.00,> 5.00,4.30 to 5.00
Cn1cnc(-c2cc(Cl)c(F)c(C(=O)NNS(=O)(=O)C[C@H]3C[C@@H](NC(N)=O)C3)c2)c1 [Compound I-235],> 5.00,> 5.00,> 5.00,4.30 to 5.00
Cn1cnc(-c2cc(Cl)c(F)c(C(=O)NNS(=O)(=O)CC3CCCC(NC(=O)c4cccnc4)C3)c2)c1 (stereo not shown) [Compound I-236],> 5.00,> 5.00,> 5.00,4.30 to 5.00
Cn1cnc(-c2cc(Cl)c(F)c(C(=O)NNS(=O)(=O)c3cn(C)cn3)c2)c1 [Compound I-237],> 5.00,4.30 to 5.00,> 5.00,4.30 to 5.00
Cn1cnc(-c2cc(Cl)c(F)c(C(=O)NNS(=O)(=O)CC3CCCC(NC(=O)c4ccncc4)C3)c2)c1 (stereo not shown) [Compound I-238],> 5.00,> 5.00,> 5.00,4.30 to 5.00
Cn1cnc(-c2cc(Cl)c(F)c(C(=O)NNS(=O)(=O)CC3(C)CCOCC3)c2)c1 [Compound I-239],4.30 to 5.00,> 5.00,> 5.00,4.30 to 5.00
Cn1cnc(-c2cc(Cl)c(F)c(C(=O)NNS(=O)(=O)C[C@H]3CC[C@H](NC(=O)c4ccccc4)CC3)c2)c1 [Compound I-240],> 5.00,> 5.00,> 5.00,4.30 to 5.00
Cn1cnc(-c2cc(Cl)c(F)c(C(=O)NNS(=O)(=O)C[C@H]3CC[C@H](NC(=O)c4cccnc4)CC3)c2)c1 [Compound I-241],> 5.00,> 5.00,> 5.00,4.30 to 5.00
Cn1cnc(-c2cc(Cl)c(F)c(C(=O)NNS(=O)(=O)CC3CC4CCC(C3)O4)c2)c1 (stereo not shown) [Compound I-242],> 5.00,> 5.00,> 5.00,4.30 to 5.00
Cn1cnc(-c2cc(Cl)c(F)c(C(=O)NNS(=O)(=O)CC3CCCC(NC(=O)Cc4cccnc4)C3)c2)c1 (stereo not shown) [Compound I-243],> 5.00,> 5.00,> 5.00,4.30 to 5.00
Cn1cnc(-c2cc(Cl)c(F)c(C(=O)NNS(=O)(=O)CCC3CCOCC3)c2)c1 [Compound I-244],> 5.00,> 5.00,> 5.00,4.30 to 5.00
Cn1cnc(-c2cc(Cl)c(F)c(C(=O)NNS(=O)(=O)C[C@H]3CC[C@H](NC(=O)c4ccccn4)CC3)c2)c1 [Compound I-245],> 5.00,> 5.00,> 5.00,4.30 to 5.00
Cn1cnc(-c2cc(Cl)c(F)c(C(=O)NNS(=O)(=O)C[C@H]3CC[C@@H](NC(=O)C4CCC4)CC3)c2)c1 [Compound I-246],> 5.00,> 5.00,> 5.00,4.30 to 5.00
Cn1cnc(-c2cc(Cl)c(F)c(C(=O)NNS(=O)(=O)CC3CCCC(NC(=O)Cc4ccncc4)C3)c2)c1 (stereo not shown) [Compound I-247],> 5.00,> 5.00,> 5.00,4.30 to 5.00
Cn1cnc(-c2cc(Cl)c(F)c(C(=O)NNS(=O)(=O)C[C@H]3CC[C@@H](NS(C)(=O)=O)CC3)c2)c1 [Compound I-248],> 5.00,> 5.00,> 5.00,4.30 to 5.00
Cn1cnc(-c2cc(Cl)c(F)c(C(=O)NNS(=O)(=O)C[C@H]3CC[C@H](NC(=O)Cc4ccccn4)CC3)c2)c1 [Compound I-249],> 5.00,> 5.00,> 5.00,4.30 to 5.00
Cn1cnc(-c2cc(Cl)c(F)c(C(=O)NNS(=O)(=O)CC3CCC4CCC3N4C(=O)OC(C)(C)C)c2)c1 (stereo not shown) [Compound I-250],4.30 to 5.00,> 5.00,> 5.00,4.30 to 5.00
Cn1cnc(-c2cc(Cl)c(F)c(C(=O)NNS(=O)(=O)CC3CCC4CCC3N4)c2)c1 (stereo not shown) [Compound I-251],4.30 to 5.00,4.30 to 5.00,> 5.00,4.30 to 5.00

Structure (SMILES),pIC50 (KAT-6A),pIC50 (KAT-5),pIC50 (KAT-7),pIC50 (KAT-8)
Cn1cnc(-c2cc(Cl)c(F)c(C(=O)NNS(=O)(=O)C[C@H]3CCC[C@@H](NC(=O)OC(C)(C)C)C3)c2)c1 [Compound I-252],> 5.00,> 5.00,> 5.00,4.30 to 5.00
Cn1cnc(-c2cc(Cl)c(F)c(C(=O)NNS(=O)(=O)C[C@H]3CCC[C@@H](N)C3)c2)c1 [Compound I-253],4.30 to 5.00,4.30 to 5.00,> 5.00,4.30 to 5.00
Cn1cnc(-c2cc(Cl)c(F)c(C(=O)NNS(=O)(=O)C[C@H]3CC[C@H](NC(=O)Cc4ccncc4)CC3)c2)c1 [Compound I-254],> 5.00,> 5.00,> 5.00,4.30 to 5.00
CCC1CC(CS(=O)(=O)NNC(=O)c2cc(-c3cn(C)cn3)cc(Cl)c2F)CC1=O (stereo not shown) [Compound I-255],4.30 to 5.00,4.30 to 5.00,> 5.00,4.30 to 5.00
CC(C1CCCCC1)S(=O)(=O)NNC(=O)c1cc(-c2cn(C)cn2)cc(Cl)c1F (stereo not shown) [Compound I-256],> 5.00,> 5.00,> 5.00,4.30 to 5.00
Cn1cnc(-c2cc(Cl)c(F)c(C(=O)NNS(=O)(=O)c3cncs3)c2)c1 [Compound I-257],4.30 to 5.00,4.30 to 5.00,4.30 to 5.00,4.30 to 5.00
Cn1cnc(-c2cc(Cl)c(F)c(C(=O)NNS(=O)(=O)C[C@H]3CC[C@H](NC(=O)Cc4cccnc4)CC3)c2)c1 [Compound I-258],> 5.00,> 5.00,> 5.00,4.30 to 5.00
CCNC(=O)N1[C@H]2CC[C@@H](CS(=O)(=O)NNC(=O)c3cc(-c4cn(C)cn4)cc(Cl)c3F)[C@@H]1CC2 [Compound I-260],> 5.00,> 5.00,> 5.00,4.30 to 5.00
Cn1cnc(-c2cc(Cl)c(F)c(C(=O)NNS(=O)(=O)C[C@H]3CC[C@H]4CC[C@@H]3N4)c2)c1 [Compound I-261],4.30 to 5.00,4.30 to 5.00,4.30 to 5.00,4.30 to 5.00
Cn1cnc(-c2cc(Cl)c(F)c(C(=O)NNS(=O)(=O)CC3CCC(F)(F)CC3)c2)c1 [Compound I-262],> 5.00,> 5.00,> 5.00,4.30 to 5.00
Cn1cnc(-c2cc(Cl)c(F)c(C(=O)NNS(=O)(=O)CC3CCCc4ccccc43)c2)c1 (stereo not shown) [Compound I-264],> 5.00,> 5.00,> 5.00,4.30 to 5.00
CCNC(=O)N1[C@H]2CC[C@H](CS(=O)(=O)NNC(=O)c3cc(-c4cn(C)cn4)cc(Cl)c3F)[C@@H]1CC2 [Compound I-265],> 5.00,> 5.00,> 5.00,4.30 to 5.00
CCNC(=O)N[C@@H]1CCC[C@H](CS(=O)(=O)NNC(=O)c2cc(-c3cn(C)cn3)cc(Cl)c2F)C1 [Compound I-266],> 5.00,> 5.00,> 5.00,4.30 to 5.00
C[C@@H]1CN(C(=O)OC(C)(C)C)C[C@H]1CS(=O)(=O)NNC(=O)c1cc(-c2cn(C)cn2)cc(Cl)c1F [Compound I-267],4.30 to 5.00,> 5.00,> 5.00,4.30 to 5.00
CNC1CCCC(CS(=O)(=O)NNC(=O)c2cc(-c3cn(C)cn3)cc(Cl)c2F)C1 (stereo not shown) [Compound I-280],4.30 to 5.00,4.30 to 5.00,> 5.00,4.30 to 5.00
CN1CCN(C2CCCC(CS(=O)(=O)NNC(=O)c3cc(-c4cn(C)cn4)cc(Cl)c3F)C2)C1=O (stereo not shown) [Compound I-281],> 5.00,> 5.00,> 5.00,4.30 to 5.00
Cn1cnc(-c2cc(Cl)c(F)c(C(=O)NNS(=O)(=O)Cc3cccnc3)c2)c1 [Compound I-282],4.30 to 5.00,> 5.00,> 5.00,4.30 to 5.00
CC(=O)N1C[C@H](CS(=O)(=O)NNC(=O)c2cc(-c3cn(C)cn3)cc(Cl)c2F)[C@@H](C)C1 [Compound I-283],4.30 to 5.00,4.30 to 5.00,> 5.00,4.30 to 5.00
Cn1cnc(-c2cc(Cl)c(F)c(C(=O)NNS(=O)(=O)c3nccn3C)c2)c1 [Compound I-284],> 5.00,4.30 to 5.00,> 5.00,4.30 to 5.00
Cn1cnc(-c2cc(Cl)c(F)c(C(=O)NNS(=O)(=O)CC3CCC(NC(=O)OC(C)(C)C)C3)c2)c1 (stereo not shown) [Compound I-285],> 5.00,> 5.00,> 5.00,4.30 to 5.00
